Reference: patent publication US20040072315A1, “Integrin-binding chimeras” (priority 2003, published 2004)
Where a SMILES comes first, the peptide text is derived from it. Bridges are numbered along the chain shown (N, C = ends). [ ]: non-standard residue; d: D form. hArg = N=C(N)NCCCC[C@H](N)C(=O)O; Mpa = O=C(O)CCS

What was measured:
[1] = tested on: platelets in PRP from citrated human blood; experiment: ADP-induced platelet aggregation in PRP (light transmission); assay type: cell-based; settings: 10 μM ADP; for IC50: molar value (MW of Repro assumed 42 Kd, Integrilin 720d), read-out: Inhibition of ADP-induced platelet aggregation
Experimental: Platelet aggregation was measured by the increase in light transmission as described previously. Briefly, PRP was prepared from citrated human blood, obtained from healthy individuals, by centrifugation at 200×g for 15 mins. Platelet aggregation was induced with 10 μM ADP and measured using a Payton Dual-Aggregometer linked to a chart recorder.
The efficacy of wild-type and five variants of dendroaspin was assessed using ADP-induced platelet aggregation in PRP. The percentage of inhibition of platelet aggregation by these mutant dendroaspins was compared with wild-type dendroaspin and the inhibition of platelet aggregation expressed as IC50 values.

[2] = tested on: platelets; experiment: collagen-induced platelet aggregation; assay type: cell-based, human; settings: for IC50: molar value (MW of Repro assumed 42 Kd, Integrilin 720d), read-out: Inhibition of collagen-induced platelet aggregation
Experimental: Platelet aggregation was measured by the increase in light transmission as described previously. Briefly, PRP was prepared from citrated human blood, obtained from healthy individuals, by centrifugation at 200×g for 15 mins. […]

[3] = target: integrin αIIbβ3 (glycoprotein GP IIb/IIIa) on human platelets (human) (UniProt P08514); experiment: cell-based or functional assay
[4] = target: factor Xa (Homo sapiens, UniProt P00742); settings: slow, tight-binding inhibitor; cited from earlier work
[5] = tested on: factor Xa; experiment: single-stage chromogenic assay of factor Xa inhibition (S-2765); assay type: biochemical; settings: chromogenic substrate S-2765, 30 min preincubation; for IC50: read-out: Anti-Xa
Experimental: A single-stage chromogenic assay of factor Xa inhibition was used to determine this recombinant molecule. Clotting factor Xa was diluted to […] in 10 mM Hepes (pH 7.5) containing 0.1% bovine serum albumin and 150 mM NaCl (HBSA). Fifty microliters of sample (diluted at vary concentrations into HSBA) were incubated for 30 min at room temperature with 100 μl of factor Xa in a 96-well microtiter plate. Fifty microliters of 1 mM S-2765, a chromogenic substrate for factor Xa, was then added, and the initial rate (mOD per min) of substrate hydrolysis over 5 min was measured at 405/650 nm by using a automated plate reader.

[6] = tested on: factor VIIa, kallikrein, trypsin, chymotrypsin, thrombin, urokinase, plasmin, tissue plasminogen activator, elastase, Staphylococcus aureus V8 protease; settings: 300-fold molar excess; cited from earlier work
[7] = tested on: 11 other serine proteases; settings: only protease inhibited among 11 other serine proteases; cited from earlier work

factor Xa (Homo sapiens, UniProt P00742), sequence (P00742 235-488 limits assumed): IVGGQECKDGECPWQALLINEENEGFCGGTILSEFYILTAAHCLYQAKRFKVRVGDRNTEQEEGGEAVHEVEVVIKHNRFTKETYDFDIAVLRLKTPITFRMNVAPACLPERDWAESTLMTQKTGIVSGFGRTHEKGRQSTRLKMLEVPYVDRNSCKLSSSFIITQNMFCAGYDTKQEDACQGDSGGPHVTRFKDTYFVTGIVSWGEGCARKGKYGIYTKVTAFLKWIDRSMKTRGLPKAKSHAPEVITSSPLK
factor Xa (Homo sapiens, UniProt P00742), sequence (P00742 41-179 partner limits assumed): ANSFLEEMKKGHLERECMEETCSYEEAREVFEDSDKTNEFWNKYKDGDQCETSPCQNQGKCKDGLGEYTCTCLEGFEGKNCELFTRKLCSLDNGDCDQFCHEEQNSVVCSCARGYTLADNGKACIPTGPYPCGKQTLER

| Molecule | Inhibition of ADP-induced platelet aggregation [1] | IC50 [1] | Inhibition of collagen-induced platelet aggregation [2] | IC50 [2] | Anti-Xa [5] | IC50 [5] | other results |
| --- | --- | --- | --- | --- | --- | --- | --- |
| N=C(N)NCCCC[C@@H]1NC(=O)CCSSC[C@@H](C(N)=O)NC(=O)[C@@H]2CCCN2C(=O)[C@H](Cc2c[nH]c3ccccc23)NC(=O)[C@H](CC(=O)O)NC(=O)CNC1=O [Integrilin] ([Mpa][hArg]GDWPC-NH2; disulfide 1-7) | 0.2 µg/mL | 277 nM | 0.23 µg/mL | 319 nM |  |  |  |
| Dendroaspin (ligand) |  |  |  |  |  |  | Inhibition of ADP-induced platelet aggregation [3]: 1.2 µg/mL |
| Repro: also known as 7E3, a known inhibitor of integrin-mediated binding; MW assumed 42 Kd | 3.2 µg/mL | 76 nM | 3.80 µg/mL | 90 nM |  |  |  |
| TAP: tick anticoagulant peptide from Ornithodoros moubata, factor Xa inhibitor (YNRLCIKPRDWIDECDSNEGGERAYFRNGKGGCDSFWICPEDHTGADYYSSYRDCFNACI) |  |  |  |  | 0.02 to 0.07 µg/mL | 2.8 to 10 nM | Ki [4]: 0.588 nM; effect on other proteases [6]: no effect |
| NAP5: anticoagulant protein of hookworm Ancylostoma caninum, SEQ ID NO:28 (protein, Description of Artificial Sequence: NAP portion of ND9) KAYPECGENEWLDDCGTQKPCEAKCNEEPPEEEDPICRSRGCLLLPACVCKDGFYRDTVIGDCVREEECDQHEIIH |  |  |  |  |  |  | inhibition of Factor Xa [7]: 50% |
| ND9-M3: cleaved ND9 with a fragment of NAP5 linked to dendroaspin, SEQ ID NO:30 (protein, Descriotion of Artificial Sequence: protein fragment ND9-F3) RSRGCLLLPACVCKDGFYRDTVIGDCVREEECDQHEIIHVGGGGPGPGGGPGGRICYNHLGTKPPTTETCQEDSCYKNIWTFDNIIRRGCGCFTARGDMPGPYCCESDNCNL | 4.2 µg/mL | 260 nM | 3.90 µg/mL | 240 nM | 2.3 µg/mL | 141 nM |  |
